# Assay results as given in patent US7141661B2, “Non-steroidal anti-inflammatory drug activated gene with anti-tumorigenic properties” (The United States of America as represented by the …, priority 2000, dated 2006).
# How the values were obtained:
# [1] = system: NAG-1; assay: Northern blot analysis of NAG-1 mRNA expression in HCT-116 cells; type: cell-based, human
# Method: Upon reaching 60–80% confluence in 10 cm plates, the cells were treated at indicated concentrations and times with either different NSAIDs or PPARγ ligands in the absence of serum. Total RNAs were isolated using TRIzol reagent (Life Technologies) according to the manufacturer's protocol. For Northern blot analysis, […] of total RNA was denatured at 55° C. for 15 min and separated in a 1.2% agarose gel containing 2.2 M formaldehyde, and transferred to Hybond-N membrane ([…]). After fixing the membrane by UV, blots were prehybridized in hybridization solution (Rapid-hyb buffer, […]) for 1 hr at 65° C. followed by hybridization with cDNA labeled with [α-^32P]dCTP by random primer extension (DECAprimeII kit, Ambion). The probes used were either full-length NAG-1 fragment or PTGFB clone (generously provided by Dr. Bento-Soar of the University of Iowa). After 4 hr incubation at 65° C., the blots were washed once with 2×SSC/0.1% SDS at RT and twice with 0.1×SSC/0.1% SDS at 65° C. Messenger RNA abundance Was estimated by intensities of the hybridization bands of autoradiographs using Scion Image (Scion). Equivalent loading of RNA samples was confirmed by hybridizing the same blot with a ^32P-labeled b-actin probe which recognizes RNA of approximately 2 kb.
# To determine whether other NSAIDs increased apoptosis and NAG-1 expression, tests were conducted to determine whether variants of NSAIDs induced NAG-1 gene expression and NSAID-induced apoptosis. Aspirin, ibuprofen, indomethacin, and sulindac sulfide were selected since they are known COX inhibitors. […] HCT-116 cells were treated with different NSAIDs (vehicle, 0.2% DMSO; aspirin, 10 mM; ibuprofen, 1 mM; sodium salicylate, 5 mM; sulindac sulfide, 50 μM; sulindac, 40 μM; acetaminophen, 100 μM) for 24 hr in the absence of serum. Northern analysis was performed using NAG-1 and β-actin as probes. Total RNAs were isolated from NSAID-treated HCT-116 cells after 24 hr treatment and Northern blot was performed using NAG-1 cDNA as a probe (data not shown). […] Each of the doses were as follows: aspirin (1, 5, 10 mM); ibuprofen (100, 500, 1000 μM); salicylate (1, 2.5, 5 mM); sulindac sulfide (1, 10, 50 μM); sulindac (10, 20, 40 μM); acetaminophen (10, 50, 100 μM). After 48 hr treatment with NSAIDs in the presence of serum, cells were harvested and assayed as described in FIG. 1C. Apoptosis detected by PI staining was measured by FACS, as known in the art (FIG. 2A; HCT-116 cells were treated with different NSAIDs (vehicle, 0.2% DMSO; Aspirin, 10 mM; Ibuprofen, 1 mM; Sodium Salicylate, 5 mM; Sulindac Sulfide, 50 μM; Sulindac, 40 μM; Acetaminophen, 100 μM) for 24 hr in the absence of serum. Northern analysis was performed using NAG-1 and β-actin as probes. The open bars represent the relative expression of NAG-1 mRNA over the control (vehicle). The hatched bars represent the relative apoptosis ratio over vehicle treatment by PI staining methods. N=3±S.D.).
# In the Table below, HCT-116 cells were treated with different NSAIDs (vehicle, 0.2% DMSO) for 24 hr in the absence of serum. Northern analysis was performed using NAG-1 and β-actin as probes. The data represent relative expression of NAG-1 mRNA over the control (1.0). Each NSAID was tested at 3 different concentrations and maximally effective concentration used for apoptosis determination. Apoptosis ratio by PI staining was measured by FACS. After 48 hr treatment with NSAIDs in the presence of serum, cells were harvested and assayed. The data represent relative apoptosis ratio over vehicle treatment by PI staining methods. TACS™ Annexin V-FITC kit was also used to confirm apoptosis.
# [2] = system: HCT-116 cells; assay: Apoptosis by FACS in HCT-116 cells stably transfected with vector, sense or antisense NAG-1; type: cell-based, human; conditions: 100 μM, 48 hr
# Description: HCT-116 cells were stably transfected with an expression vector containing the full-length NAG-1 coding region in the sense and antisense orientations. The sense cells expressed NAG-1 protein at a level that was 2.0–2.5 fold greater than the vector transfected cells, while the anti-sense cells expressed slightly lower NAG-1 levels compared to vector transfected cells. […] The full-length NAG-1 (sense strand and antisense strand) was cloned into the pCDNA3.1 expression vector and transfected into HCT-116 cells. Each cell was grown under G418 (500 μg/ml) for 2 weeks and treated with either vehicle or INDO (100 μM). After growing for 48 hr, the media was harvested, concentrated, and subjected to Western analysis. Thirty μg of total protein was loaded in each lane, and the arrow indicates the NAG-1 protein band.
# Despite repeated attempts, construction of NAG-1 highly expressing cells which may be linked to high rates of apoptosis were not generated (data not shown). […] This could be due to effects on cell proliferation and/or an increase in cell death. […] The stably transfected cells were then incubated with 100 μM indomethacin for 48 hr and the percentage of cells in apoptosis determined by FACS analysis as described in Example 1. The data shown in FIG. 6 represent mean±S.D. Indomethacin enhanced the percentage of apoptotic cells by approximately 2 fold in the vector-HCT-116 and sense cells.
smiles,measurement,setting,value
COc1ccc2c(c1)c(CC(=O)O)c(C)n2C(=O)c1ccc(Cl)cc1 [Indomethacin],NAG-1 mRNA expression,"[1]; HCT-116, 100 μM INDO, 24 hr, no serum",significant increase
same,NAG-1 Induction (mRNA) Fold,"[1]; HCT-116, 24 hr in absence of serum, relative NAG-1 mRNA over vehicle control (1.0), tested over the concentration range listed",2.2 Fold
same,Stimulation of apoptosis,[2]; antisense HCT-116 cells,did not stimulate apoptosis
same,Enhancement of percentage of apoptotic cells,[2]; sense NAG-1 HCT-116 cells,approximately 2 fold
same,Enhancement of percentage of apoptotic cells,[2]; vector-HCT-116 cells,approximately 2 fold
